Test results as given in ChEMBL document CHEMBL5576097, “Synthesis and biological evaluation of novel penindolone derivatives as potential antiproliferative agents against SCLC in vitro” (Bioorg Med Chem Lett, 2024).
Active and inactive are the calls of the source. No cut-off for these calls is given here.

Assays:
H69AR [1] = test: Antiproliferative activity against human NCI-H69AR cells by SRB assay; format: functional, cell-based
A549 = test: Antiproliferative activity against human A549 cells by SRB assay; format: functional, cell-based
NCI-H358 = test: Antiproliferative activity against human NCI-H358 cells by SRB assay; format: functional, cell-based
H69AR [2] = test: Inhibition of colony formation in human NCI-H69AR cells; format: functional, cell-based; settings: dose 0-8 µM
H69AR [3] = test: Inhibition of colony formation in human NCI-H69AR cells at 8 uM relative to control; format: functional
H69AR [4] = test: Induction of cell cycle arrest in human NCI-H69AR cells assessed as reduction in number of cells in S phase measured after 24 hrs by flow cytometry analysis; format: functional, cell-based; settings: dose 0-8 µM
H69AR [5] = test: Induction of cell cycle arrest in human NCI-H69AR cells assessed as increase in number of cells in G0/G1 phase at 0 to 8 uM measured after 24 hrs by flow cytometry analysis; format: functional, cell-based; settings: dose 0-8 µM
H69AR [6] = test: Induction of apoptosis in human NCI-H69AR cells assessed as increase in cleaved caspase-8 protein expression by Western blot analysis; format: functional, cell-based; settings: dose 0.5-8 µmol/L
H69AR [7] = test: Induction of apoptosis in human NCI-H69AR cells assessed as increase in cleaved PARP protein expression by Western blot analysis; format: functional, cell-based; settings: dose 0.5-8 µmol/L
H69AR [8] = test: Induction of apoptosis in human NCI-H69AR cells assessed as increase in BAX protein expression by Western blot analysis; format: functional, cell-based; settings: dose 0.5-8 µmol/L
H69AR [9] = test: Induction of apoptosis in human NCI-H69AR cells assessed as reduction in Bcl-2 protein expression by Western blot analysis; format: functional, cell-based; settings: dose 0.5-8 µmol/L
H69AR [10] = test: Induction of apoptosis in human NCI-H69AR cells assessed as reduction in XIAP protein expression by Western blot analysis; format: functional, cell-based; settings: dose 0.5-8 µmol/L
H69AR [11] = test: Induction of apoptosis in human NCI-H69AR cells assessed as live cells at 2 micromol/L measured after 48 hrs by Annexin V-FITC/PI staining based flow cytometry analysis (reference value: 97.7%); format: functional; settings: dose 2 µmol/L, at 2 µM
H69AR [12] = test: Induction of apoptosis in human NCI-H69AR cells assessed as early apoptotic cells at 2 micromol/L measured after 48 hrs by Annexin V-FITC/PI staining based flow cytometry analysis (reference value: 1.96%); format: functional; settings: dose 2 µmol/L, at 2 µM
H69AR [13] = test: Induction of apoptosis in human NCI-H69AR cells assessed as late apoptotic cells at 2 micromol/L measured after 48 hrs by Annexin V-FITC/PI staining based flow cytometry analysis (reference value: 0.38%); format: functional; settings: dose 2 µmol/L, at 2 µM
H69AR [14] = test: Induction of apoptosis in human NCI-H69AR cells assessed as dead cells at 2 micromol/L measured after 48 hrs by Annexin V-FITC/PI staining based flow cytometry analysis (reference value: 0%); format: functional; settings: dose 2 µmol/L, at 2 µM
H69AR [15] = test: Induction of apoptosis in human NCI-H69AR cells assessed as live cells at 4 micromol/L measured after 48 hrs by Annexin V-FITC/PI staining based flow cytometry analysis (reference value: 97.7%); format: functional; settings: dose 4 µmol/L, at 4 µM
H69AR [16] = test: Induction of apoptosis in human NCI-H69AR cells assessed as early apoptotic cells at 4 micromol/L measured after 48 hrs by Annexin V-FITC/PI staining based flow cytometry analysis (reference value: 1.96%); format: functional; settings: dose 4 µmol/L, at 4 µM
H69AR [17] = test: Induction of apoptosis in human NCI-H69AR cells assessed as late apoptotic cells at 4 micromol/L measured after 48 hrs by Annexin V-FITC/PI staining based flow cytometry analysis (reference value: 0.38%); format: functional; settings: dose 4 µmol/L, at 4 µM
H69AR [18] = test: Induction of apoptosis in human NCI-H69AR cells assessed as dead cells at 4 micromol/L measured after 48 hrs by Annexin V-FITC/PI staining based flow cytometry analysis (reference value: 0%); format: functional; settings: dose 4 µmol/L, at 4 µM
H69AR [19] = test: Induction of apoptosis in human NCI-H69AR cells assessed as live cells at 8 micromol/L measured after 48 hrs by Annexin V-FITC/PI staining based flow cytometry analysis (reference value: 97.7%); format: functional; settings: dose 8 µmol/L, at 8 µM
H69AR [20] = test: Induction of apoptosis in human NCI-H69AR cells assessed as early apoptotic cells at 8 micromol/L measured after 48 hrs by Annexin V-FITC/PI staining based flow cytometry analysis (reference value: 1.96%); format: functional; settings: dose 8 µmol/L, at 8 µM
H69AR [21] = test: Induction of apoptosis in human NCI-H69AR cells assessed as late apoptotic cells at 8 micromol/L measured after 48 hrs by Annexin V-FITC/PI staining based flow cytometry analysis (reference value: 0.38%); format: functional; settings: dose 8 µmol/L, at 8 µM
H69AR [22] = test: Induction of apoptosis in human NCI-H69AR cells assessed as dead cells at 8 micromol/L measured after 48 hrs by Annexin V-FITC/PI staining based flow cytometry analysis (reference value: 0%); format: functional; settings: dose 8 µmol/L, at 8 µM

## Cc1cc(C(=O)c2ccccc2Cl)c(O)c(Cc2[nH]c3ccccc3c2Cc2c(O)c(C)cc(C(=O)c3ccccc3Cl)c2O)c1O
H69AR [1]
  IC50: 5.97 µM

## Cc1ccc(C(=O)c2cc(C)c(O)c(Cc3[nH]c4ccccc4c3Cc3c(O)c(C)cc(C(=O)c4ccc(C)cc4)c3O)c2O)cc1
H69AR [1]
  IC50: 3.41 µM

## Cc1cc(C(=O)c2ccccc2Br)c(O)c(Cc2[nH]c3ccccc3c2Cc2c(O)c(C)cc(C(=O)c3ccccc3Br)c2O)c1O
H69AR [1]
  IC50: 7 µM

## Cc1cc(C(=O)CC(C)C)c(O)c(Cc2[nH]c3ccccc3c2Cc2c(O)c(C)cc(C(=O)CC(C)C)c2O)c1O
H69AR [1]
  IC50: > 50 µM

## COc1cccc(C(=O)c2cc(C)c(O)c(Cc3[nH]c4ccccc4c3Cc3c(O)c(C)cc(C(=O)c4cccc(OC)c4)c3O)c2O)c1
H69AR [1]
  IC50: 4.25 µM

## Cc1cc(C(=O)c2ccc(C(F)(F)F)cc2)c(O)c(Cc2[nH]c3ccccc3c2Cc2c(O)c(C)cc(C(=O)c3ccc(C(F)(F)F)cc3)c2O)c1O
H69AR [1]
  IC50: 4.02 µM

## CCc1cc(C(C)=O)c(O)c(Cc2[nH]c3ccccc3c2Cc2c(O)c(CC)cc(C(C)=O)c2O)c1O
H69AR [1]
  IC50: > 50 µM

## Cc1cccc(C(=O)c2cc(C)c(O)c(Cc3[nH]c4ccccc4c3Cc3c(O)c(C)cc(C(=O)c4cccc(C)c4)c3O)c2O)c1
H69AR [1]
  IC50: 4.78 µM

## Cc1cc(C(=O)c2ccc3ccccc3c2)c(O)c(Cc2[nH]c3ccccc3c2Cc2c(O)c(C)cc(C(=O)c3ccc4ccccc4c3)c2O)c1O
H69AR [1]
  IC50: 41.5 µM

## Cc1cc(C(=O)c2ccc(F)cc2)c(O)c(Cc2[nH]c3ccccc3c2Cc2c(O)c(C)cc(C(=O)c3ccc(F)cc3)c2O)c1O
H69AR [1]
  IC50: 2.21 µM

## Cc1cc(C(=O)c2ccc(CCl)cc2)c(O)c(Cc2[nH]c3ccccc3c2Cc2c(O)c(C)cc(C(=O)c3ccc(CCl)cc3)c2O)c1O
H69AR [1]
  IC50: 13.2 µM

## Cc1cc(C(=O)c2ccc(Cl)cc2Cl)c(O)c(Cc2[nH]c3ccccc3c2Cc2c(O)c(C)cc(C(=O)c3ccc(Cl)cc3Cl)c2O)c1O
H69AR [1]
  IC50: 4 µM

## Cc1cc(C(=O)c2ccc(Br)cc2)c(O)c(Cc2[nH]c3ccccc3c2Cc2c(O)c(C)cc(C(=O)c3ccc(Br)cc3)c2O)c1O
H69AR [1]
  IC50: 1.58 µM
A549
  IC50: 21.2 µM
NCI-H358
  IC50: 35.8 µM
H69AR [2]
  inhibition: Dose-Dependent Effect
H69AR [3]
  inhibition at 8 µM: 100%
H69AR [4]
  Activity: Dose-Dependent Effect
H69AR [5]
  Activity: Active
H69AR [6]
  Activity: Dose-Dependent Effect
H69AR [7]
  Activity: Dose-Dependent Effect
H69AR [8]
  Activity: Dose-Dependent Effect
H69AR [9]
  Activity: Dose-Dependent Effect
H69AR [10]
  Activity: Dose-Dependent Effect
H69AR [11]
  Activity: 92.9%
H69AR [12]
  Activity: 4.85%
H69AR [13]
  Activity: 2.24%
H69AR [14]
  Activity: 0.01%
H69AR [15]
  Activity: 82.9%
H69AR [16]
  Activity: 11.3%
H69AR [17]
  Activity: 5.7%
H69AR [18]
  Activity: 0.057%
H69AR [19]
  Activity: 62.8%
H69AR [20]
  Activity: 28.5%
H69AR [21]
  Activity: 8.22%
H69AR [22]
  Activity: 0.46%

## Cc1cc(C(=O)c2cccc(F)c2)c(O)c(Cc2[nH]c3ccccc3c2Cc2c(O)c(C)cc(C(=O)c3cccc(F)c3)c2O)c1O
H69AR [1]
  IC50: 1.94 µM

## Cc1cc(C(=O)c2ccccc2F)c(O)c(Cc2[nH]c3ccccc3c2Cc2c(O)c(C)cc(C(=O)c3ccccc3F)c2O)c1O
H69AR [1]
  IC50: 5.34 µM

## Cc1cc(C(=O)c2ccccc2)c(O)c(Cc2[nH]c3ccccc3c2Cc2c(O)c(C)cc(C(=O)c3ccccc3)c2O)c1O
H69AR [1]
  IC50: 7.58 µM

## Cc1cc(C(=O)c2ccc(Cl)cc2)c(O)c(Cc2[nH]c3ccccc3c2Cc2c(O)c(C)cc(C(=O)c3ccc(Cl)cc3)c2O)c1O
H69AR [1]
  IC50: 1.64 µM

## Cc1cc(C(=O)c2cccc(Br)c2)c(O)c(Cc2[nH]c3ccccc3c2Cc2c(O)c(C)cc(C(=O)c3cccc(Br)c3)c2O)c1O
H69AR [1]
  IC50: 1.86 µM

## CCC(=O)c1cc(C)c(O)c(Cc2[nH]c3ccccc3c2Cc2c(O)c(C)cc(C(=O)CC)c2O)c1O
H69AR [1]
  IC50: > 50 µM

## Cc1ccccc1C(=O)c1cc(C)c(O)c(Cc2[nH]c3ccccc3c2Cc2c(O)c(C)cc(C(=O)c3ccccc3C)c2O)c1O
H69AR [1]
  IC50: 3.17 µM

## Cc1cc(C(=O)c2cccc(Cl)c2)c(O)c(Cc2[nH]c3ccccc3c2Cc2c(O)c(C)cc(C(=O)c3cccc(Cl)c3)c2O)c1O
H69AR [1]
  IC50: 2.81 µM

## CC(=O)c1cc(C)c(O)c(Cc2[nH]c3ccccc3c2Cc2c(O)c(C)cc(C(C)=O)c2O)c1O
H69AR [1]
  IC50: 42.5 µM

## COc1ccc(C(=O)c2cc(C)c(O)c(Cc3[nH]c4ccccc4c3Cc3c(O)c(C)cc(C(=O)c4ccc(OC)cc4)c3O)c2O)cc1
H69AR [1]
  IC50: 3.36 µM
